Measurements as given in US8987266B2, “EGFR mutations” (Genentech, Inc., priority 2004, dated 2015).

What was measured:
A431 xenografts = settings: nude mice; cited from earlier work
HN5 xenografts = settings: nude mice; cited from earlier work
H1975 tumor cell line = assay: treatment of H1975 tumor cell line; format: cell-based; settings: H1975, EGFR T790M in combination with L858R
[1] = combined with paclitaxel, cisplatin, gemcitabine, and doxorubicin; cited from earlier work

SMILES: C#Cc1cccc(Nc2ncnc3cc(OCCOC)c(OCCOC)cc23)c1 [erlotinib]
- growth inhibition of A431 xenografts (A431 xenografts): marked growth inhibition
- growth inhibition of HN5 xenografts (HN5 xenografts): marked growth inhibition
- response of tumor cell line to treatment (H1975 tumor cell line): exhibited resistance
- interaction with chemotherapy agents [1]: additive interaction
